Reference: ChEMBL document CHEMBL3991601, “The target landscape of clinical kinase drugs” (Science, 2017)
Activity calls are given as the source filed them.

Legend:
[1] = biological target: T1, Electron transfer flavoprotein subunit beta (Homo sapiens, UniProt P38117)
T1 sequence (P38117 whole entry): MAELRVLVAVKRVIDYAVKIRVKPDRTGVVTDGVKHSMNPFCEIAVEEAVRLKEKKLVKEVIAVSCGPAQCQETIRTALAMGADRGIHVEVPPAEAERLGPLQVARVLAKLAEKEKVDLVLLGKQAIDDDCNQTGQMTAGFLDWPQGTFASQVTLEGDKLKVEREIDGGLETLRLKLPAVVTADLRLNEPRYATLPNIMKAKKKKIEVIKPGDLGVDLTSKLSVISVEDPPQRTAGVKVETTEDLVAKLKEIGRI

[2] = biological target: T2, Phosphatidylinositol 5-phosphate 4-kinase type-2 alpha (Homo sapiens, UniProt P48426)
T2 sequence (P48426 whole entry): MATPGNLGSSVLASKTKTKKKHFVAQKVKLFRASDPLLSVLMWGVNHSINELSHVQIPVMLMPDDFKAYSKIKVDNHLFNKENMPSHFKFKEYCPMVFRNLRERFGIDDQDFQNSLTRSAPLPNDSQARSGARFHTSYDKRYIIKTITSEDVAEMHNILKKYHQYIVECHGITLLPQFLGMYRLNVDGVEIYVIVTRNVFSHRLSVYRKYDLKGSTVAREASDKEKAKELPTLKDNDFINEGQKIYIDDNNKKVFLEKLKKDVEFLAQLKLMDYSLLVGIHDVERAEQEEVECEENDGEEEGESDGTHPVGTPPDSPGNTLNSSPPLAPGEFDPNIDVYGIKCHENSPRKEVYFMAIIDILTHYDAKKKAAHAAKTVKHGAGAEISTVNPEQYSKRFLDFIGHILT

[3] = biological target: cAMP-dependent protein kinase catalytic subunit beta (Homo sapiens, UniProt P22694)
[4] = biological target: Cyclin-dependent kinase 4 (Homo sapiens, UniProt P11802)
[5] = biological target: Serine/threonine-protein kinase 10 (Homo sapiens, UniProt O94804)
Actin-related protein 2 = Actin-related protein 2 (Homo sapiens, UniProt P61160)
[6] = biological target: T3, Beta-adrenergic receptor kinase 1 (Homo sapiens, UniProt P25098)
T3 sequence (P25098 whole entry): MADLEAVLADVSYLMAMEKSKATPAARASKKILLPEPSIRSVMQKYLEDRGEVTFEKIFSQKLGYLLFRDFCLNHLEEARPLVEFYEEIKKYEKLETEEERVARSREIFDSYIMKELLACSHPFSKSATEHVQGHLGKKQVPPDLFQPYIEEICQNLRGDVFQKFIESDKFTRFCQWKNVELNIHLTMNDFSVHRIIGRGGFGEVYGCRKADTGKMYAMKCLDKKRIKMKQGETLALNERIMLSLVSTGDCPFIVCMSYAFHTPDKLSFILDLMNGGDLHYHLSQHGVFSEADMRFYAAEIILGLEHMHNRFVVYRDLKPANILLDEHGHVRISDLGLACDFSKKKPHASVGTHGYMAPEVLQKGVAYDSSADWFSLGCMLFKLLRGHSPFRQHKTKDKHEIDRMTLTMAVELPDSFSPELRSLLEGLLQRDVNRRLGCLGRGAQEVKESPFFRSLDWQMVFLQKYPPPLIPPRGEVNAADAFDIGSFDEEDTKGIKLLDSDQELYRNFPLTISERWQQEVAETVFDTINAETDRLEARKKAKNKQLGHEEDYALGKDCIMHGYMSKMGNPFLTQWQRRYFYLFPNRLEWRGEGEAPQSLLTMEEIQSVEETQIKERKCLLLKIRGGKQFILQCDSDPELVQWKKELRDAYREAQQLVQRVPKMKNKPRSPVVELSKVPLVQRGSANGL

Midasin = Midasin (Homo sapiens, UniProt Q9NU22)
[7] = biological target: Casein kinase I isoform gamma-1 (Homo sapiens, UniProt Q9HCP0)
[8] = biological target: T4, Phosphorylase b kinase gamma catalytic chain, liver/testis isoform (Homo sapiens, UniProt P15735)
T4 sequence (P15735 whole entry): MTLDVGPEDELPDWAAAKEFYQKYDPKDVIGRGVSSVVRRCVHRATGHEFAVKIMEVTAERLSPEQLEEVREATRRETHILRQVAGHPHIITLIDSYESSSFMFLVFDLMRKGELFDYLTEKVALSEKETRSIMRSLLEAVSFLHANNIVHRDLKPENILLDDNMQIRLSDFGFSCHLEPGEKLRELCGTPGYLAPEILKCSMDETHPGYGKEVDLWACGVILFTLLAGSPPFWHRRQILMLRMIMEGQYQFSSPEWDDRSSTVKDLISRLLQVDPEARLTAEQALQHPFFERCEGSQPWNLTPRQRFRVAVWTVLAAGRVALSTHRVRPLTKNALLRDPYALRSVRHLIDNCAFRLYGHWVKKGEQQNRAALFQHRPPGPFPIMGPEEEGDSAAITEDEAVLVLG

Measured: Kd
Note: in the data inactive means no Kd found up to 30 µM.

Serine/threonine-protein kinase 10, sequence (O94804 whole entry): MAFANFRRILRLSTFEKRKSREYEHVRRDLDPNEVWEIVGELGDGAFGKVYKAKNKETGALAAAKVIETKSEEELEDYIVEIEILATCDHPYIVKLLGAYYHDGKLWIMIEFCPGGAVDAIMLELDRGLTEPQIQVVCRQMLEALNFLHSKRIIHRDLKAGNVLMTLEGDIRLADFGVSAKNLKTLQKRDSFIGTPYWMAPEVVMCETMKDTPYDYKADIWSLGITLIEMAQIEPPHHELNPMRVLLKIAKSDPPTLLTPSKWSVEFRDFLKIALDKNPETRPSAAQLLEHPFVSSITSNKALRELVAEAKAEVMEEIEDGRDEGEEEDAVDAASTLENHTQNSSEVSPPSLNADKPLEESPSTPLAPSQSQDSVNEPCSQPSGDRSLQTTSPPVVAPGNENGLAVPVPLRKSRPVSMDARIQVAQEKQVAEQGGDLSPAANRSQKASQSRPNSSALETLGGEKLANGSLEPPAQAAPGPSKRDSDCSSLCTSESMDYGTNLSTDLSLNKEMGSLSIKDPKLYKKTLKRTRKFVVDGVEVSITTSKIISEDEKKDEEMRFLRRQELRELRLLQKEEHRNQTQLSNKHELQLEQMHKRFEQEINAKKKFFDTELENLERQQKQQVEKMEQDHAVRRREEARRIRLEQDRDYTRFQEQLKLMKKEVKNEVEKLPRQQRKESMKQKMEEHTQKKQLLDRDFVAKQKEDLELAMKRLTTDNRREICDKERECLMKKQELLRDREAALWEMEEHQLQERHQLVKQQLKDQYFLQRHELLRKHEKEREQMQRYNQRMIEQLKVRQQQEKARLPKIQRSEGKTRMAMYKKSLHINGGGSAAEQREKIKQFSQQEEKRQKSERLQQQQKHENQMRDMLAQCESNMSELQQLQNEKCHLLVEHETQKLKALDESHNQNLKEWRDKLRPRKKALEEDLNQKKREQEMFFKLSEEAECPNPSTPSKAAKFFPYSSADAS
Casein kinase I isoform gamma-1, sequence (Q9HCP0 whole entry, canonical isoform): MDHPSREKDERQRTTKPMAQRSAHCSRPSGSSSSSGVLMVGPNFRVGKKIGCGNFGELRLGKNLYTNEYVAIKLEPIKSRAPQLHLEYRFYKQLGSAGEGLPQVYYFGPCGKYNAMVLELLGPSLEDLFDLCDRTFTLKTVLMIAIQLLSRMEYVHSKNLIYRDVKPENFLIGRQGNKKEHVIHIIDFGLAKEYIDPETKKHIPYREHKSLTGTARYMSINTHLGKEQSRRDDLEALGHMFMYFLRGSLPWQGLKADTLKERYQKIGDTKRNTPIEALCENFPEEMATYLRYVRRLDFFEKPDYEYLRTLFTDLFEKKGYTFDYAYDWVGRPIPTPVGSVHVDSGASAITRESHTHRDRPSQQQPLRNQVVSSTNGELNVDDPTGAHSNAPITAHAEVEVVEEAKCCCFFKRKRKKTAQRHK
Cyclin-dependent kinase 4, sequence (P11802 whole entry): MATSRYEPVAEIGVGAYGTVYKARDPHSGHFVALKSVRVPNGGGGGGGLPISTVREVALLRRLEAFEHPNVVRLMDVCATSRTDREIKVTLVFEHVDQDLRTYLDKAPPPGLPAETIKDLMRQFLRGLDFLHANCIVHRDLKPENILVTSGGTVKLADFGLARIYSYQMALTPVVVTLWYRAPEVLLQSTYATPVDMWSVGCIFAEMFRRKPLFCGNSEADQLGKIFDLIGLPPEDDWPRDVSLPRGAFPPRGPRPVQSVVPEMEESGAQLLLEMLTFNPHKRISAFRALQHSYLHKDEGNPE

C[C@]1(O)C[C@@H](c2nc(-c3ccc4ccc(-c5ccccc5)nc4c3)c3c(N)nccn32)C1 [LINSITINIB]
inactive: [1] > 30 µM | [2] > 30 µM | [3] > 30 µM | [4] > 30 µM | [5] > 30 µM | Actin-related protein 2 > 30 µM | [6] > 30 µM | Midasin > 30 µM

CN(c1ncccc1CNc1nc(Nc2ccc3c(c2)CC(=O)N3)ncc1C(F)(F)F)S(C)(=O)=O [PF-00562271]
inactive: [1] > 30 µM | [2] > 30 µM | [3] > 30 µM | [4] > 30 µM | [5] > 30 µM | Actin-related protein 2 > 30 µM | [6] > 30 µM | Midasin > 30 µM

Cn1cnc2c(F)c(Nc3ccc(Br)cc3Cl)c(C(=O)NOCCO)cc21 [SELUMETINIB]
inactive: [1] > 30 µM | [2] > 30 µM | Actin-related protein 2 > 30 µM | [6] > 30 µM | Midasin > 30 µM

COc1cc2c(N3CCN(C(=O)Nc4ccc(OC(C)C)cc4)CC3)ncnc2cc1OCCCN1CCCCC1 [TANDUTINIB]
inactive: [1] > 30 µM | [2] > 30 µM | Actin-related protein 2 > 30 µM | [6] > 30 µM | Midasin > 30 µM

COc1cc2c(Oc3ccc4[nH]c(C)cc4c3F)ncnc2cc1OCCCN1CCCC1 [CEDIRANIB]
inactive: [1] > 30 µM | [2] > 30 µM | Actin-related protein 2 > 30 µM | [6] > 30 µM | Midasin > 30 µM

CC1(C)CNc2cc(NC(=O)c3cccnc3NCc3ccncc3)ccc21 [MOTESANIB]
inactive: [1] > 30 µM | [2] > 30 µM | Actin-related protein 2 > 30 µM | [6] > 30 µM | Midasin > 30 µM

CN(C)C/C=C/C(=O)Nc1cc2c(Nc3ccc(F)c(Cl)c3)ncnc2cc1O[C@H]1CCOC1 [AFATINIB]
inactive: [1] > 30 µM | [2] > 30 µM | Actin-related protein 2 > 30 µM | [6] > 30 µM | Midasin > 30 µM

C[C@@]1(C(=O)Nc2ccc(F)nc2)CCCN1c1nc(Nc2cc(C3CC3)n[nH]2)c2cccn2n1 [BMS-754807]
inactive: [1] > 30 µM | [2] > 30 µM | Actin-related protein 2 > 30 µM | Midasin > 30 µM

Cc1cc(-c2cc(OC(=O)c3ccccc3)ccc2Cl)cc2nnc(Nc3ccc(OCCN4CCCC4)cc3)nc12 [TG100-801]
inactive: [2] > 30 µM | [3] > 30 µM | [4] > 30 µM | [5] > 30 µM | Actin-related protein 2 > 30 µM | [6] > 30 µM | [7] > 30 µM | Midasin > 30 µM | [8] > 30 µM

O=C(Nc1ccc(OC(F)(F)F)cc1)c1sccc1NCc1ccnc2ccccc12 [OSI-930]
inactive: [2] > 30 µM | [3] > 30 µM | [4] > 30 µM | [5] > 30 µM | Actin-related protein 2 > 30 µM | [6] > 30 µM | [7] > 30 µM | Midasin > 30 µM | [8] > 30 µM

N#CCNC(=O)c1ccc(-c2ccnc(Nc3ccc(N4CCOCC4)cc3)n2)cc1 [MOMELOTINIB]
inactive: [1] > 30 µM | [2] > 30 µM | [3] > 30 µM | [4] > 30 µM | Actin-related protein 2 > 30 µM | [6] > 30 µM | Midasin > 30 µM | [8] > 30 µM

C[C@@H]1COC(Nc2ccc3ncnc(Nc4ccc(OCc5nccs5)c(Cl)c4)c3c2)=N1 [VARLITINIB]
inactive: [2] > 30 µM | [3] > 30 µM | [4] > 30 µM | [5] > 30 µM | Actin-related protein 2 > 30 µM | [6] > 30 µM | [7] > 30 µM | Midasin > 30 µM | [8] > 30 µM

FC(F)(F)c1ccc(CNc2ccc(Cc3c[nH]c4ncc(Cl)cc34)cn2)cn1 [PEXIDARTINIB]
inactive: [2] > 30 µM | [3] > 30 µM | [4] > 30 µM | [5] > 30 µM | Actin-related protein 2 > 30 µM | [6] > 30 µM | [7] > 30 µM | Midasin > 30 µM | [8] > 30 µM
